Where a name gives a salt, the structure may show the parent alone.

The test system of one assay is SU-DHL-4 cells. Description: Inhibitory effect on cell viability in SU-DHL-4 cell line (Test Example 1). The class given is cell-based, human. The conditions noted are these: Homo sapiens; SU-DHL-4 cells, 72 hours, Cell Counting Kit-8; concentration showing 90% inhibition of cell viability; read-out: SU-DHL-4 Cell Viability Inhibition Rate IC90. The method in brief:
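SU-DHL-4 cells were grown at 37° C. under 5% CO2 in RPMI1640 with 10 vol % heat-inactivated FBS plus penicillin/streptomycin, seeded and precultured for 18 to 25 hours, then exposed to test compound at 0.1 vol % DMSO for 72 hours. Viability was read with Cell Counting Kit-8 by absorbance at 450 nm.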
Broadly, the IC90 is the point of the concentration-response curve where the effect stands at 90%. With `CCC(=O)N1c2ccccc2[C@H](Nc2ccc(NC(=O)CCCC(=O)NC34CCC(NCc5cc(O)cc(-c6c(C)noc6C)c5)(CC3)CC4)cc2)C[C@@H]1C` [Compound 17c, N^1-(4-((3-(3,5-Dimethylisoxazol-4-yl)-5-hydroxybenzyl)amino)bicyclo[2.2.2]octan-1-yl)-N5-(4-(((2S,4R)-2-methyl-1-propionyl-1,2,3,4-tetrahydroquinolin-4-yl)amino)phenyl)glutaramide], the IC90 came to 2.05 nM. Same read-out and setting: the result for `CCC(=O)N1c2ccccc2[C@H](Nc2ccc(-n3cc(CNC(=O)c4cccc(Oc5ccccc5-c5cn(C)c(=O)cc5OC)c4)nn3)cc2)C[C@@H]1C` [Compound 17d, 3-(2-(4-Methoxy-1-methyl-6-oxo-1,6-dihydropyridin-3-yl)phenoxy)-N-((1-(4-(((2S,4R)-2-methyl-1-propionyl-1,2,3,4-tetrahydroquinolin-4-yl)amino)phenyl)-1H-1,2,3-triazol-4-yl)methyl)benzamide] reads 0.13 nM; that for `CCC(=O)N1c2ccccc2[C@H](Nc2ccc(CNCc3cn(-c4ccc(N[C@@H]5C[C@H](C)N(C(=O)CC)c6ccccc65)nc4)nn3)cc2)C[C@@H]1C` [Compound 17e, 1-((2S,4R)-2-Methyl-4-((4-((((1-(6-(((2S,4R)-2-methyl-1-propionyl-1,2,3,4-tetrahydroquinolin-4-yl)amino)pyridin-3-yl)-1H-1,2,3-triazol-4-yl)methyl)amino)methyl)phenyl)amino)-3,4-dihydroquinolin-1(2H)-yl)propan-1-one], 1.82 nM.

On to `CCC(=O)N1c2ccccc2[C@H](Nc2ccc(-c3cnn(CCNC(=O)C4CCN(Cc5cc(O)cc(-c6c(C)noc6C)c5)CC4)c3)cc2)C[C@@H]1C` [Compound 17i, 1-(3-(3,5-Dimethylisoxazol-4-yl)-5-hydroxybenzyl)-N-(2-(4-(4-(((2S,4R)-2-methyl-1-propionyl-1,2,3,4-tetrahydroquinolin-4-yl)amino)phenyl)-1H-pyrazol-1-yl)ethyl)piperidine-4-carboxamide], for which the IC90 worked out at 1.45 nM. The same measure, in the same setting: the result for `CCC(=O)N1c2ccccc2[C@H](Nc2ccc(NC(=O)NCC(=O)NC3CCN(Cc4cc(O)cc(-c5c(C)noc5C)c4)CC3)cc2)C[C@@H]1C` [Compound 17j, N-(1-(3-(3,5-Dimethylisoxazol-4-yl)-5-hydroxybenzyl)piperidin-4-yl)-2-(3-(4-(((2S,4R)-2-methyl-1-propionyl-1,2,3,4-tetrahydroquinolin-4-yl)amino)phenyl)ureido)acetamide] reads 29 nM; that for `CCC(=O)N1c2ccccc2[C@H](Nc2ccc(NC(=O)CNC(=O)NC3CCN(Cc4cc(O)cc(-c5c(C)noc5C)c4)CC3)cc2)C[C@@H]1C` [Compound 17k, 2-(3-(1-(3-(3,5-Dimethylisoxazol-4-yl)-5-hydroxybenzyl)piperidin-4-yl)ureido)-N-(4-(((2S,4R)-2-methyl-1-propionyl-1,2,3,4-tetrahydroquinolin-4-yl)amino)phenyl)acetamide], 43.7 nM; that for `CCC(=O)N1c2ccccc2[C@H](Nc2ccc(-n3cc(CCNC(=O)C4CCN(Cc5cc(O)cc(-c6c(C)noc6C)c5)CC4)nn3)cc2)C[C@@H]1C` [Compound 17l, 1-(3-(3,5-Dimethylisoxazol-4-yl)-5-hydroxybenzyl)-N-(2-(1-(4-(((2S,4R)-2-methyl-1-propionyl-1,2,3,4-tetrahydroquinolin-4-yl)amino)phenyl)-1H-1,2,3-triazol-4-yl)ethyl)piperidine-4-carboxamide formate], 1.89 nM.

Take `CCC(=O)N1c2ccccc2[C@H](Nc2ccc(C(=O)NCc3nnc(C4CCN(Cc5cc(O)cc(-c6c(C)noc6C)c5)CC4)o3)cc2)C[C@@H]1C` [Compound 17m, N-((5-(1-(3-(3,5-Dimethylisoxazol-4-yl)-5-hydroxybenzyl)piperidin-4-yl)-1,3,4-oxadiazol-2-yl)methyl)-4-(((2S,4R)-2-methyl-1-propionyl-1,2,3,4-tetrahydroquinolin-4-yl)amino)benzamide]: the IC90 stood at 74.1 nM. Same read-out and setting: the result for `CCC(=O)N1c2ccccc2[C@H](Nc2ccc(NC(=O)C3CN(C(=O)c4ccc(C5CCN(c6ccc7nnc(Cl)n7n6)CC5)cc4)C3)cc2)C[C@@H]1C` [Compound 17p, 1-(4-(1-(3-Chloro-[1,2,4]triazolo[4,3-b]pyridazin-6-yl)piperidin-4-yl)benzoyl)-N-(4-(((2S,4R)-2-methyl-1-propionyl-1,2,3,4-tetrahydroquinolin-4-yl)amino)phenyl)azetidine-3-carboxamide] reads 0.35 nM.

Staying with this assay, now noted: SU-DHL-4 cells, 72 hours, Cell Counting Kit-8; concentration showing 90% inhibition of cell viability; read-out: SU-DHL-4 Cell Viability Inhibition Rate IC90.
For the compound `CCC(=O)N1c2ccccc2[C@H](Nc2ccc(CCC(=O)NCC3(NC4CCC(N[C@@H]5C[C@H](C)N(C(=O)CC)c6ccccc65)CC4)COC3)cc2)C[C@@H]1C` (some centres unmarked) [Compound 7h], the 90% effect concentration (IC90) was determined as 5.47 nM. With `CCC(=O)N1c2ccccc2[C@H](Nc2ccc(NC(=O)CCCC(=O)NC3CCC(Cn4c(CC)cc5c4CCCC5=O)CC3)cc2)C[C@@H]1C` (stereo partly drawn) [Compound 17b, N^1-((1r,4r)-4-((2-Ethyl-4-oxo-4,5,6,7-tetrahydro-1H-indol-1-yl)methyl)cyclohexyl)-N5-(4-(((2S,4R)-2-methyl-1-propionyl-1,2,3,4-tetrahydroquinolin-4-yl)amino)phenyl)glutaramide], the IC90 was 1.74 nM.

The test system of another assay is MYC mRNA expression in SU-DHL-4 cells. Briefly: Suppressive effect on MYC mRNA expression (Test Example 2). It is filed as cell-based, human. The note with it: Homo sapiens, test compound 100 nmol/L, 6 hours, qRT-PCR corrected by ACTB, GAPDH, HPRT1, read-out: Suppression Rate of MYC mRNA Expression (%). On the procedure: The cells were passaged twice a week at a volume of 20-40 mL so as to maintain a cell concentration of 1×10^6 cells/mL or less. The cultured SU-DHL-4 cells were seeded at 6×10^5 cells/well in a transparent 6-well plate (Code No. 140675, Thermo Fisher Scientific). After seeding, the cells were precultured at 37° C. in a carbon dioxide gas incubator for 18 to 25 hours. […] At this time, the final concentration of DMSO was adjusted to be 0.1 vol %. After adding the test compound, the cells were cultured at 37° C. in a carbon dioxide gas incubator for 6 hours. Then, the cells were collected by centrifugation and used for extraction of mRNA. mRNA extraction from cells was performed using Maxwell® 16 LEV simplyRNA Purification Kits (Code No. AS1270, Promega). The mRNA recovery protocol was performed according to the manufacturer's recommended protocol attached to the kit. […] The cDNA conversion was performed, according to the manufacturer's recommended protocol attached to the kit, in 0.020 mL of the reaction solution, and GeneAmp® PCR System 9700 (Applied Biosystems) was used. The cDNA-converted sample was diluted 10-fold by adding 0.180 mL of RNase Free Water (Code No. 10977-023, Thermo Fisher Scientific) and used for quantitative real-time polymerase chain reaction (qRT-PCR). For the calibration curve of qRT-PCR, 0.08 mL of RNase Free Water was added to a cDNA sample using DMSO as a test compound for 5-fold dilution. Further, two 5-fold dilutions were prepared stepwise, and these three samples were used as the calibration curve samples. The following reagents were used for qRT-PCR: TaqMan Gene Expression Assays, Inventoried (Primer probe: Code No. 4331182, Thermo Fisher Scientific, Assay ID: (i) MYC: Hs00153408_m1, (ii) ACTB: Hs01060665_g1, (iii) GAPDH: Hs04420697_g1, (iv) HPRT1: […] Universal PCR Master Mix, no AmpEraseR UNG (Master Mix: Code No. 4367846, Thermo Fisher Scientific). Primer probe (0.001 mL), Master Mix (0.010 mL), water (0.004 mL) and the diluted cDNA sample (0.005 mL) were mixed, and qRT-PCR analysis was performed. For qRT-PCR analysis, QuantStudio 7 Flex (Thermo Fisher Scientific) or 7500 Fast Real-Time PCR (Applied Biosystems) was used to measure in Fast mode and analyze. […] Corrected MYC expression=A/B • A: MYC expression level • B: Geometric mean of expression levels of ACTB, GAPDH and HPRT1 Using the corrected values, the suppression rate of MYC expression for the wells to which the test compound was not added was calculated by the following formula. […] Corrected MYC expression level in a well containing test compound • D: Corrected MYC expression level in a well to which test compound was not added
Regarding `CCC(=O)N1c2ccccc2[C@H](Nc2ccc(NC(=O)[C@H](C)NC(=O)c3ccc(N[C@@H]4C[C@H](C)N(C(=O)CC)c5ccccc54)cc3)cc2)C[C@@H]1C` (relative stereo) [Compound 2d, 4-{[(2S,4R)-2-Methyl-1-propionyl-1,2,3,4-tetrahydroquinolin-4-yl]amino}-N-{(S)-1-[(4-{[(2S*,4R*)-2-methyl-1-propionyl-1,2,3,4-tetrahydroquinolin-4-yl]amino}phenyl)amino]-1-oxopropan-2-yl}benzamide], the inhibition at 0.1 µM was determined as 80%. As for `CCC(=O)N1c2ccccc2[C@H](Nc2ccc(NC(=O)CNC(=O)C(F)=C3CCC(N[C@@H]4C[C@H](C)N(C(=O)CC)c5ccccc54)CC3)cc2)C[C@@H]1C` (relative stereo) [Compound 15k, 2-Fluoro-2-(4-(((2S*,4R*)-2-methyl-1-propionyl-1,2,3,4-tetrahydroquinolin-4-yl)amino)cyclohexylidene)-N-(2-((4-(((2S,4R)-2-methyl-1-propionyl-1,2,3,4-tetrahydroquinolin-4-yl)amino)phenyl)amino)-2-oxoethyl)acetamide], the inhibition at 0.1 µM was determined as 97.4%.

The same assay, now with this note: test compound 100 nmol/L, 6 hours, qRT-PCR corrected by ACTB, GAPDH, HPRT1.
As to `CCC(=O)N1c2ccccc2[C@H](Nc2ccc(CCC(=O)NCC3(NC4CCC(N[C@@H]5C[C@H](C)N(C(=O)CC)c6ccccc65)CC4)COC3)cc2)C[C@@H]1C` (some centres unmarked) [Compound 7h], the “Suppression Rate of MYC mRNA Expression (%)” value is on record as 97.5%.

For the origin of these results see patent US20220378923A1, “BET DEGRADER” (KYOWA KIRIN CO., LTD., priority 2019, published 2022).
